The test concerns the target T1, Menin (Homo sapiens, UniProt O00255).
T1 sequence (O00255 whole entry): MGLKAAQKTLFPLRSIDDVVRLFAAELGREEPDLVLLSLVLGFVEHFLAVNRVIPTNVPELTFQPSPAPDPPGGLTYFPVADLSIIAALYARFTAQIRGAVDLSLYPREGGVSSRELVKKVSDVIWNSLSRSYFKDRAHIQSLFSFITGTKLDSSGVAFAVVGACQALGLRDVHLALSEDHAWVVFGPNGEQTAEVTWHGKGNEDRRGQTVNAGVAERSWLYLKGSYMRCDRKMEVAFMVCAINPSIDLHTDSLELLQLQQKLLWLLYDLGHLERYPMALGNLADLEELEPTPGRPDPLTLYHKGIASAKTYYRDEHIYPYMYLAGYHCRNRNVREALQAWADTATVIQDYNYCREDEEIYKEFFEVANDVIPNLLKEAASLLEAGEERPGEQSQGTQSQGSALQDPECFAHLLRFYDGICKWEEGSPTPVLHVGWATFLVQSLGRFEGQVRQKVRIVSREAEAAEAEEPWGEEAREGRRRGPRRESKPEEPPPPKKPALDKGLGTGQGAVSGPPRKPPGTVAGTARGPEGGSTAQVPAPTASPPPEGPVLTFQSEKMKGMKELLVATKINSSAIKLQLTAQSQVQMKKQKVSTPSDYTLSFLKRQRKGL
The test can be described thus: Primary Assay Used to Determine Potency of MEN1 Activity Inhibition. The protocol: Compound activity was determined using recombinant MEN1 protein (Creativebiomart, Cat #MEN1-35H) and a custom fluorescein-labeled MLL4-43 peptide (Eton Bioscience Inc.). Interaction between MEN1 and MLL4-43 in the presence of compounds was determined by fluorescence polarization assay using a Microplate Reader ClarioStar Plus. The reaction was carried out in assay buffer (50 mM TRIS-HCl pH 7.4-7.6, 50 mM NaCl, 1 mM DTT, 0.1 mg/ml BSA). The compounds were dispensed on a 384 well Diamond Well Plate (Axigen, Cat #P-384-120SQ-C-S) using the Biomek FX liquid handling system at 100× solutions of compounds in DMSO. 2×MEN1 mix (final concentration of MEN1 10 nM) was prepared in Assay buffer and 10 μl of mixture per well was added into 384 w white Reaction plate with NBS (Corning, Cat #4513). 10 μl of Assay buffer w/o MEN1 was used for negative control. Plates were centrifuged for 1 min at 100 g. Next step the Compounds were added to Reaction plate using Biomek station via following steps: 3 μl of 100× compounds (in DMSO) were mixed thoroughly with 27 μl Assay Buffer, then 2 μl of this mixture was added to Reaction plate with 10 μl of MEN1 mix. Plates were centrifuged for 1 min at 100 g and incubated for 20 min at room temperature. Next 8 μL of MLL4-43 peptide per well was added to final concentration of MLL 0.5 nM. Plates were incubated for 1 hour at room temperature. Then fluorescence polarization was measured using Microplate Reader.
With `CCS(=O)(=O)N1CCN([C@@H](C)Cn2c(C#N)cc3c(C)c(CN4CCC5(CC4)CN(c4ncnc6ccc(CC(F)(F)F)cc46)C5)ccc32)C[C@@H]1C` [US20250163061, Compound 26], the concentration for a half-maximal effect (EC50) is under 75 nM. The figure for `Cc1c(CN2CCC3(CC2)CN(c2ncnc4ccc(CC(F)(F)F)cc24)C3)ccc2c1cc(C#N)n2C[C@@H](C)N1CCN(S(C)(=O)=O)[C@@H](C)C1` [US20250163061, Compound 27] is under 75 nM; for `Cc1c(CN2CCC3(CC2)CN(c2ncnc4ccc(CC(F)(F)F)cc24)C3)ccc2c1cc(C#N)n2C[C@H](C)N1CCN(S(C)(=O)=O)[C@@H](C)C1` [US20250163061, Compound 28] it is under 75 nM; for `Cc1c(CN2CCC3(CC2)CN(c2ncnc4ccc(CC(F)(F)F)cc24)C3)ccc2c1cc(C#N)n2CC(C)N1CCCN(S(C)(=O)=O)CC1` (centres undefined) [US20250163061, Compound 29] it is under 75 nM. The figure for `Cc1c(CN2CCC3(CC2)CN(c2ncnc4cc(F)c(CC(F)(F)F)cc24)C3)ccc2c1cc(C#N)n2CC(C)N1CCN(S(C)(=O)=O)CC1` (centres undefined) [US20250163061, Compound 30] is under 75 nM; for `Cc1c(CN2CCC3(CC2)CN(c2ncnc4ccc(CC(F)(F)F)cc24)C3)ccc2c1cc(C#N)n2C[C@H]1CC[C@H](NS(C)(=O)=O)CC1` [US20250163061, Compound 40] it is under 75 nM; for `Cc1c(CN2CCC3(CC2)CN(c2ncnc4ncc(CC(F)(F)F)nc24)C3)ccc2c1cc(C#N)n2CC(C)N1CCN(S(C)(=O)=O)CC1` (centres undefined) [US20250163061, Compound 42] it is under 75 nM. For `Cc1c(CN2CCC3(CC2)CN(c2ncnc4ccc(CC(F)(F)F)cc24)C3)ccc2c1cc(C#N)n2CCCCN1CCN(S(C)(=O)=O)CC1` [US20250163061, Compound 44], the EC50 is under 75 nM. As to `Cc1c(CN2CCC3(CC2)CN(c2ncnc4cnc(CC(F)(F)F)cc24)C3)ccc2c1cc(C#N)n2CC(C)N1CCN(S(C)(=O)=O)CC1` (centres undefined) [US20250163061, Compound 45], the EC50 was under 75 nM. The result for `Cc1c(CN2CCC3(CC2)CN(c2ncnc4ccc(CC(F)(F)F)cc24)C3)ccc2c1cc(C#N)n2CC1CNC(=O)C1` (centres undefined) [US20250163061, Compound 51] reads under 75 nM; that for `Cc1c(CN2CCC3(CC2)CN(c2ncnc4ccc(CC(F)(F)F)cc24)C3)ccc2c1cc(C#N)n2CC1CCC(=O)N1` (centres undefined) [US20250163061, Compound 52], under 75 nM; that for `Cc1c(CN2CCC3(CC2)CN(c2ncnc4ccc(CC(F)(F)F)c(F)c24)C3)ccc2c1cc(C#N)n2C[C@H](C)N1CCN(S(C)(=O)=O)CC1` [US20250163061, Compound 57], under 75 nM.

For `CNc1nc(N2CC3(CCN(Cc4ccc5c(cc(C#N)n5C[C@@H]5CNC(=O)CO5)c4C)CC3)C2)c2cc(CC(F)(F)F)ccc2n1` [US20250163061, Compound 58], the EC50 is under 75 nM. `CC(=O)NC12CC(Cn3c(C#N)cc4c(C)c(CN5CCC6(CC5)CN(c5ncnc7ccc(CC(F)(F)F)cc57)C6)ccc43)(C1)C2` [US20250163061, Compound 59] yielded an EC50 of under 75 nM. Turning to `CNC(=O)NC12CC(Cn3c(C#N)cc4c(C)c(CN5CCC6(CC5)CN(c5ncnc7ccc(CC(F)(F)F)cc57)C6)ccc43)(C1)C2` [US20250163061, Compound 60], the EC50 was under 75 nM. The figure for `Cc1c(CN2CCC3(CC2)CN(c2ncnc4ccc(CC(F)(F)F)cc24)C3)ccc2c1cc(C#N)n2CC12CC(NS(N)(=O)=O)(C1)C2` [US20250163061, Compound 61] is under 75 nM; for `Cc1c(CN2CCC3(CC2)CN(c2ncnc4ccc(CC(F)(F)F)cc24)C3)ccc2c1cc(C#N)n2CC12CC(N3CC(=O)NS3(=O)=O)(C1)C2` [US20250163061, Compound 62] it is under 75 nM; for `C=CC(=O)N1CCN(C(C)Cn2c(C#N)cc3c(C)c(CN4CCC5(CC4)CN(c4ncnc6ccc(CC(F)(F)F)cc46)C5)ccc32)CC1` (centres undefined) [US20250163061, Compound 63] it is under 75 nM. Compound `Cc1c(CN2CCC3(CC2)CN(c2ncnc4ccc(CC(F)(F)F)cc24)C3)ccc2c1cc(C#N)n2CC(C)N1CCN(S(=O)(=O)C(C)C)CC1` (centres undefined) [US20250163061, Compound 64] registered an EC50 of under 75 nM. Turning to `C=CC(=O)N1CCN(CCCCn2c(C#N)cc3c(C)c(CN4CCC5(CC4)CN(c4ncnc6ccc(CC(F)(F)F)cc46)C5)ccc32)CC1` [US20250163061, Compound 65], the half-maximal effective concentration (EC50) is under 75 nM. The figure for `C=CC(=O)N1CCN(CCCn2c(C#N)cc3c(C)c(CN4CCC5(CC4)CN(c4ncnc6ccc(CC(F)(F)F)cc46)C5)ccc32)CC1` [US20250163061, Compound 66] is under 75 nM. Compound `Cc1c(CN2CCC3(CC2)CN(c2ncnc4ccc(CC(F)(F)F)nc24)C3)ccc2c1cc(C#N)n2CC(C)N1CCN(S(C)(=O)=O)CC1` (centres undefined) [US20250163061, Compound 67] returned an EC50 of under 75 nM. For the compound `Cc1c(CN2CCC3(CC2)CN(c2ncnc4ccc(CC(F)(F)F)cc24)C3)ccc2[nH]c(C#N)cc12` [US20250163061, Compound 68], the EC50 was under 75 nM. The figure for `Cc1c(CN2CCC3(CC2)CN(c2ncnc4ccc(CC(F)(F)F)cc24)C3)ccc2c1cc(C#N)n2CC(C)N1CCN(S(C)(=O)=O)CC1` (centres undefined) [US20250163061, Compound 71] is under 75 nM; for `Cc1c(CN2CCC3(CC2)CN(c2ncnc4ccc(CC(F)(F)F)cc24)C3)ccc2c1cc(C#N)n2CC1CCC(=O)NC1` (centres undefined) [US20250163061, Compound 72] it is under 75 nM; for `CCCCS(=O)(=O)N1CCCN(C(C)Cn2c(C#N)cc3c(C)c(CN4CCC5(CC4)CN(c4ncnc6ccc(CC(F)(F)F)cc46)C5)ccc32)CC1` (centres undefined) [US20250163061, Compound 73] it is under 75 nM. In the case of `Cc1c(CN2CCC3(CC2)CN(c2ncnc4ccc(C(F)(F)C(F)(F)F)cc24)C3)ccc2c1cc(C#N)n2C[C@H](C)N1CCN(S(C)(=O)=O)CC1` [US20250163061, Compound 75], the EC50 was under 75 nM. As for `CC(Cn1c(C#N)cc2c(F)c(CN3CCC4(CC3)CN(c3ncnc5ccc(CC(F)(F)F)cc35)C4)ccc21)N1CCN(S(C)(=O)=O)CC1` (centres undefined) [US20250163061, Compound 78], the EC50 is 75 to 500 nM. With `Cc1c(CN2CCC3(CC2)CN(c2nncc4ccc(CC(F)(F)F)cc24)C3)ccc2c1cc(C#N)n2CC(C)N1CCN(S(C)(=O)=O)CC1` (centres undefined) [US20250163061, Compound 79], the EC50 is over 5000 nM. On to `Cc1cc(CN2CCC3(CC2)CN(c2ncnc4ccc(CC(F)(F)F)cc24)C3)cc2c1cc(C#N)n2CC(C)N1CCN(S(C)(=O)=O)CC1` (centres undefined) [US20250163061, Compound 83], for which the EC50 is over 5000 nM. Regarding `C=CC(=O)N1CCN(CCn2c(C#N)cc3cc(CN4CCC5(CC4)CN(c4ncnc6ccc(CC(F)(F)F)cc46)C5)ccc32)CC1` [US20250163061, Compound 86], the EC50 lay in the range of 75 to 500 nM. The result for `Cc1c(CN2CCC3(CC2)CN(c2ncnc4ccc(CC(F)(F)F)cc24)C3)ccc2c1cc(C#N)n2CC1CNC(=O)CCO1` (centres undefined) [US20250163061, Compound 87] reads under 75 nM; that for `Cc1c(CN2CCC3(CC2)CN(c2ncnc4ncc(CC(F)(F)F)cc24)C3)ccc2c1cc(C#N)n2CC(C)N1CCN(S(C)(=O)=O)CC1` (centres undefined) [US20250163061, Compound 89], under 75 nM.

In the case of `CS(=O)(=O)N1CCN(CCn2c(C#N)cc3cc(CN4CCC5(CC4)CN(c4ncnc6ccc(CC(F)(F)F)cc46)C5)ccc32)CC1` [US20250163061, Compound 91], the EC50 is under 75 nM. `Cc1c(CN2CCC3(CC2)CN(c2ncnc4ccc(CC(F)(F)F)cc24)C3)ccc2c1cc(C#N)n2CC(C)N1CCNC(=O)C1` (centres undefined) [US20250163061, Compound 93] came in with an EC50 of under 75 nM. In turn, `Cc1c(CN2CCC3(CC2)CN(c2ncnc4ccc(CC(F)(F)F)cc24)C3)ccc2c1cc(C#N)n2CC12CC(NC=O)(C1)C2` [US20250163061, Compound 95] yielded an EC50 of under 75 nM.

As to `Cc1c(CN2CCC3(CC2)CN(c2ncnc4ccc(CC(F)(F)F)cc24)C3)ccc2c1cc(C#N)n2CCN1CCOCC1` [US20250163061, Compound 97], the EC50 is under 75 nM. Compound `CN(C)C/C=C/C(=O)N1CCN(CCn2c(C#N)cc3cc(CN4CCC5(CC4)CN(c4ncnc6ccc(CC(F)(F)F)cc46)C5)ccc32)CC1` [US20250163061, Compound 99] displayed an EC50 of under 75 nM. With `Cc1c(CN2CCC3(CC2)CN(c2ncnc4ccc(CC(F)(F)F)cc24)C3)ccc2c1cc(C#N)n2C[C@H]1CNC(=O)CO1` [US20250163061, Compound 101], the EC50 is under 75 nM.

Broadly, the EC50 is the concentration giving half of the maximal effect. The low end stands for a more potent agent, the high end for a less potent agent.

For the origin of these results see BindingDB's records for patent US20250163061 (Bala Therapeutics, 2025).
